# Like-named read-outs stand apart in the source and are kept apart here.
# Experiments:
# Caco-2 permeability = format: in vitro ADME; settings: human; for Papp A→B: AtoB; for Papp B→A: BtoA
# From the text: Several model systems are available, employing monolayers of various cell types, for evaluation of active transport of pharmaceutically active substances. For example, monolayers of Caco-2 intestinal epithelial cells can be used to evaluate active transport of substances between the intestine and the bloodstream. When plated on a surface which allows the flow of material from apical to basolateral and vice versa, such cells form a biological membrane which can be used to simulate physiological absorption and bio-availability. In another example, mouse brain capillary endothelial cell (MBEC) lines have been established to evaluate active transport in and out of the central nervous system. Another example of such cells is HT29 human colon carcinoma cells. Further, monolayers expressing particular transporter proteins can be established using transfected cells. For example, Sasaki et al (2002) J. Biol. Chem. 8:6497 used a double-transfected Madin-Darby canine kidney cell monolayer to study transport of organic anions.
# PAMPA permeability = format: in vitro ADME; settings: for Papp: PAMPA
# Solubility = format: physicochemical
# Non-specific binding = format: in vitro ADME
# Protein binding = format: in vitro ADME; settings: human, human serum components
# Method: In general, protein binding is assessed by measuring the capacity of molecules of the invention to bind to one or more human serum components or mimics thereof. In one embodiment, suitable functional residues may be identified by screening of surfaces comprising such residues for their ability to resist adsorption of serum components, including, but not limited to serum proteins, and preferably human serum proteins. Candidate residues can be screened directly by attaching them to a solid support and testing the support for protein resistance. Alternatively, candidate residues are incorporated into, or linked to molecules of pharmaceutical interest. Such compounds may be synthesized on a solid support, or bound to a solid support after synthesis. In a non-limiting example of a direct binding assay, immobilized candidate functional residues or molecules incorporating such residues are tested for their ability to bind serum components. The serum components can be labeled with a signaling moiety for detection, or a labeled secondary reagent that binds to such serum components can be used.
# Cytotoxicity GC50 = format: cell-based
# PDE-1 = assay: Phosphodiesterase inhibition PDE-1; format: biochemical
# Method: (§1) Phosphodiesterase inhibition was determined by methods known to one of skill in the art.
# PDE-3 = assay: Phosphodiesterase inhibition PDE-3; format: biochemical
# Method: as §1
# PDE-6 = assay: Phosphodiesterase inhibition PDE-6; format: biochemical
# Method: as §1
# Cytotoxicity LC50 = format: cell-based; settings: Chronic; read-out: Cytotox LC50 Chronic
# PDE5 [1] = molecular target: T1, PDE5 (Homo sapiens, UniProt O76074); assay: Phosphodiesterase inhibition IC50 (Table 1); format: biochemical; settings: PDE5 inhibitor scaffold Compound B
# Method: as §1
# PDE5 [2] = molecular target: T1, PDE5; assay: Phosphodiesterase inhibition PDE-5 human; format: biochemical
# Method: as §1
# RLM half-life = format: in vitro ADME; settings: rat, liver microsomes, read-out: RLM T1/2
# [3] = pH 2.7, aqueous buffer, pH 2.7, read-out: Solubility pH 2.7
# [4] = pH 7.4, aqueous buffer, pH 7.4, read-out: Solubility pH 7.4
Compound,Papp A→B (Caco-2 permeability),Papp B→A (Caco-2 permeability),"Papp (PAMPA permeability; Hex, read-out: PAMPA Hex)",solubility (Solubility; [3]),solubility (Solubility; [4]),Non-Spec Binding (Non-specific binding),fraction unbound (Protein binding),Cytotox GC50 (Cytotoxicity GC50),"Papp (PAMPA permeability; Lec, read-out: PAMPA Lec)",IC50 (PDE-1),IC50 (PDE-3),IC50 (PDE-6),CC50 (Cytotoxicity LC50),IC50 (PDE5 [1]),PAMPA Hex (PAMPA permeability; Hex),Solubility pH 2.7 (Solubility; pH 2.7),Solubility pH 7.4 (Solubility; pH 7.4),IC50 (PDE5 [2]),half-life (RLM half-life)
CCCc1nc(C)c2c(=O)[nH]c(-c3cc(S(=O)(=O)N(C)[C@@H](C)C(=O)N(C)C)ccc3OCC)nn12 [Compound 12],33.4 ×10⁻⁶ cm/s,50.4 ×10⁻⁶ cm/s,13.9 ×10⁻⁶ cm/s,96 µg/mL,100 µg/mL,30.7%,0.058,99.3 µM,–,–,–,–,–,–,–,–,–,–,–
CCCc1nc(C)c2c(=O)[nH]c(-c3cc(S(=O)(=O)N(C)CC(=O)N(C)CC(=O)N(C)C)ccc3OCC)nn12 [Compound 4],2.97 ×10⁻⁶ cm/s,25.9 ×10⁻⁶ cm/s,0.47 ×10⁻⁶ cm/s,112 µg/mL,109 µg/mL,7%,0.18,–,0.056 ×10⁻⁶ cm/s,–,–,–,–,–,–,–,–,–,–
CCCc1nc(C)c2c(=O)[nH]c(-c3cc(S(=O)(=O)N(CC)CC(=O)N(CC)CC)ccc3OCC)nn12 [Compound 10],–,–,67 ×10⁻⁶ cm/s,77.9 µg/mL,78.5 µg/mL,–,–,–,–,–,–,–,–,–,–,–,–,–,–
CCCc1nc(C)c2c(=O)[nH]c(-c3cc(S(=O)(=O)N(C)CC(=O)N4CCN(C)CC4)ccc3OCC)nn12 [Compound 7],4.35 ×10⁻⁶ cm/s,35.6 ×10⁻⁶ cm/s,0.18 ×10⁻⁶ cm/s,> 100 µg/mL,> 100 µg/mL,2.6%,0.155,–,–,–,–,–,–,–,–,–,–,–,–
CCCc1nc(C)c2c(=O)[nH]c(-c3cc(S(=O)(=O)N(C)CC(=O)NC)ccc3OCC)nn12 [Compound 21],5.15 ×10⁻⁶ cm/s,31.4 ×10⁻⁶ cm/s,0.24 ×10⁻⁶ cm/s,> 100 µg/mL,> 100 µg/mL,–,–,–,–,–,–,–,–,–,–,–,–,–,–
CCCc1nc(C)c2c(=O)[nH]c(-c3cc(S(=O)(=O)N(C)CC(=O)N(C)C)ccc3OCC)nn12 [Compound 1],17.5 ×10⁻⁶ cm/s,48.9 ×10⁻⁶ cm/s,5.49 ×10⁻⁶ cm/s,> 100 µg/mL,96.1 µg/mL,11.07%,0.086,76.7 µM,0.128 ×10⁻⁶ cm/s,25 nM,986 nM,3.5 nM,–,–,–,–,–,–,–
CCCc1nc(C)c2c(=O)[nH]c(-c3cc(S(=O)(=O)N(C)C4(C(=O)N(C)C)CC4)ccc3OCC)nn12 [Compound 16],–,–,3.41 ×10⁻⁶ cm/s,74.7 µg/mL,82.5 µg/mL,–,–,100 µM,–,–,–,–,100 µM,–,–,–,–,–,–
CCCc1nc(C)c2c(=O)[nH]c(-c3cc(S(=O)(=O)N(C)CC(=O)N(CC)CC)ccc3OCC)nn12 [Compound 8],42 ×10⁻⁶ cm/s,77.4 ×10⁻⁶ cm/s,21.8 ×10⁻⁶ cm/s,> 100 µg/mL,> 100 µg/mL,19%,0.024,–,–,–,–,–,–,–,–,–,–,–,–
CCCc1nc(C)c2c(=O)[nH]c(-c3cc(S(=O)(=O)N(C)CC(=O)N4CCOCC4)ccc3OCC)nn12 [Compound 6],11.2 ×10⁻⁶ cm/s,55.1 ×10⁻⁶ cm/s,0.78 ×10⁻⁶ cm/s,> 100 µg/mL,> 100 µg/mL,7.3%,0.084,–,–,–,–,–,–,–,–,–,–,–,–
CCCc1nc(C)c2c(=O)[nH]c(-c3cc(S(=O)(=O)N4CCCC4C(=O)N(C)C)ccc3OCC)nn12 (stereo not shown) [Compound 5],19.4 ×10⁻⁶ cm/s,60.2 ×10⁻⁶ cm/s,13.2 ×10⁻⁶ cm/s,100 µg/mL,93 µg/mL,–,–,–,–,–,–,–,–,–,–,–,–,–,–
CCCc1nc(C)c2c(=O)[nH]c(-c3cc(S(=O)(=O)NC(C)C(=O)N(C)C)ccc3OCC)nn12 (stereo not shown) [Compound 18],–,–,–,–,–,–,–,100 µM,–,–,–,–,100 µM,0.36 nM,0.18 10^−6 cm/s,70.3 ug/mL,75.75 ug/mL,0.36 nM,–
CCCc1nc(C)c2c(=O)[nH]c(-c3cc(S(=O)(=O)N(C)[C@H](C)C(=O)N(C)C)ccc3OCC)nn12 [Compound 2],33.3 ×10⁻⁶ cm/s,61.3 ×10⁻⁶ cm/s,18.2 ×10⁻⁶ cm/s,> 100 µg/mL,> 100 µg/mL,20.7%,0.032,94.6 µM,–,–,–,–,–,–,–,–,–,–,–
CCCc1nc(C)c2c(=O)[nH]c(-c3cc(S(=O)(=O)N(C)C(C)(C)C(=O)NC)ccc3OCC)nn12 [Compound 15],6.8 ×10⁻⁶ cm/s,34.9 ×10⁻⁶ cm/s,0.25 ×10⁻⁶ cm/s,–,–,–,–,95.0 µM,–,–,–,–,100 µM,–,–,–,–,–,–
CCCc1nc(C)c2c(=O)[nH]c(-c3cc(S(=O)(=O)NC(C)(C)C(=O)N(C)C)ccc3OCC)nn12 [Compound 19],2.43 ×10⁻⁶ cm/s,33 ×10⁻⁶ cm/s,0.17 ×10⁻⁶ cm/s,> 100 µg/mL,7.1 µg/mL,–,–,100 µM,–,–,–,–,100 µM,–,–,–,–,–,–
CCCc1nc(C)c2c(=O)[nH]c(-c3cc(S(=O)(=O)N(C)C(C)(C)C(=O)N(C)C)ccc3OCC)nn12 [Compound 3],28.9 ×10⁻⁶ cm/s,58.5 ×10⁻⁶ cm/s,9.11 ×10⁻⁶ cm/s,> 100 µg/mL,> 100 µg/mL,14.3%,0.076,100 µM,–,10 nM,412 nM,1.7 nM,–,–,–,–,–,–,–
CCCc1nc(C)c2c(=O)[nH]c(-c3cc(S(=O)(=O)N(C)CC(=O)N(C)CCOC)ccc3OCC)nn12 [Compound 11],11.4 ×10⁻⁶ cm/s,63.3 ×10⁻⁶ cm/s,1.45 ×10⁻⁶ cm/s,66.7 µg/mL,70.9 µg/mL,0%,0.042,–,–,–,–,–,–,0.15 nM,–,–,–,0.15 nM,–
CCCc1nc(C)c2c(=O)[nH]c(-c3cc(S(=O)(=O)NC)ccc3OCC)nn12 [Compound 20],24.3 ×10⁻⁶ cm/s,53 ×10⁻⁶ cm/s,0.37 ×10⁻⁶ cm/s,> 100 µg/mL,> 100 µg/mL,16.23%,0.0397,100 µM,0.00384 ×10⁻⁶ cm/s,28 nM,1010 nM,4.18 nM,100 µM,0.24 nM,–,–,–,0.243 nM,60.2 min
CCCc1nc(C)c2c(=O)[nH]c(-c3cc(S(=O)(=O)NC(C)C(=O)N(C)C)ccc3OCC)nn12 (stereo not shown) [Compound 17],–,–,0.26 ×10⁻⁶ cm/s,70 µg/mL,78.4 µg/mL,–,–,100 µM,–,–,–,–,100 µM,0.66 nM,–,–,–,0.66 nM,–
CCCc1nc(C)c2c(=O)[nH]c(-c3cc(S(=O)(=O)N(C)[C@@H](C)C(=O)NC)ccc3OCC)nn12 [Compound 13],–,–,0.42 ×10⁻⁶ cm/s,69.4 µg/mL,74.6 µg/mL,–,–,94.0 µM,–,–,–,–,100 µM,–,–,–,–,–,–
CCCc1nc(C)c2c(=O)[nH]c(-c3cc(S(=O)(=O)N(C)CC(=O)N(C)CCN(C)C)ccc3OCC)nn12 [Compound 9],2.33 ×10⁻⁶ cm/s,11.3 ×10⁻⁶ cm/s,0.03 ×10⁻⁶ cm/s,> 100 µg/mL,> 100 µg/mL,9.8%,0.246,–,–,–,–,–,–,–,–,–,–,–,–
CCCc1nc(C)c2c(=O)[nH]c(-c3cc(S(=O)(=O)N(C)[C@H](C)C(=O)NC)ccc3OCC)nn12 [Compound 14],–,–,0.47 ×10⁻⁶ cm/s,62.6 µg/mL,64 µg/mL,–,–,88.0 µM,–,–,–,–,100 µM,–,–,–,–,–,–

# From patent publication US20110172422A1, “Methods of Making Pharmacokinetically Improved Compounds Comprising Functional Residues or Groups and Pharmaceutical Compositions Comprising Said Compounds” (SURFACE LOGIX, INC., priority 2005, published 2011)
